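Cultured in 96-well plates, cells were exposed to test compound for 48 hours across five concentrations. TGI marks complete inhibition of growth.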
What was measured:
Assay in all cases: NCI anticancer screen, dose series, 48 h
SR leukemia = tested on: SR leukemia
UACC-62 melanoma = tested on: UACC-62 melanoma
T-47D breast = tested on: T-47D breast
EKVX NSCLC = tested on: EKVX NSCLC
SF-268 CNS = tested on: SF-268 CNS
CCRF-CEM leukemia = tested on: CCRF-CEM leukemia
HS 578T breast = tested on: HS 578T breast
A549 NSCLC = tested on: A549 NSCLC
SNB-75 CNS = tested on: SNB-75 CNS
ACHN renal = tested on: ACHN renal
M14 melanoma = tested on: M14 melanoma
HCT-116 colon = tested on: HCT-116 colon
NCI-H460 lung = tested on: NCI-H460 lung
SW-620 colon = tested on: SW-620 colon
UACC-257 melanoma = tested on: UACC-257 melanoma
MOLT-4 leukemia = tested on: MOLT-4 leukemia
OVCAR-3 ovarian = tested on: OVCAR-3 ovarian
NCI-H226 lung = tested on: NCI-H226 lung
OVCAR-4 ovarian = tested on: OVCAR-4 ovarian
K-562 leukemia = tested on: K-562 leukemia
CAKI-1 renal = tested on: CAKI-1 renal
NCI/ADR-RES ovarian = tested on: NCI/ADR-RES ovarian
SK-MEL-5 melanoma = tested on: SK-MEL-5 melanoma
HL-60(TB) leukemia = tested on: HL-60(TB) leukemia
HCC-2998 colon = tested on: HCC-2998 colon
COLO 205 colon = tested on: COLO 205 colon
MCF7 breast = tested on: MCF7 breast
OVCAR-8 ovarian = tested on: OVCAR-8 ovarian
MDA-N = tested on: MDA-N
TK-10 renal = tested on: TK-10 renal
BT-549 breast = tested on: BT-549 breast
SN12C renal = tested on: SN12C renal
U251 CNS = tested on: U251 CNS
NCI-H23 lung = tested on: NCI-H23 lung
DU-145 prostate = tested on: DU-145 prostate
MDA-MB-435 = tested on: MDA-MB-435
IGROV1 ovarian = tested on: IGROV1 ovarian
NCI-H522 lung = tested on: NCI-H522 lung
SK-MEL-28 melanoma = tested on: SK-MEL-28 melanoma
HOP-62 NSCLC = tested on: HOP-62 NSCLC
PC-3 prostate = tested on: PC-3 prostate
SNB-19 CNS = tested on: SNB-19 CNS
RPMI-8226 leukemia = tested on: RPMI-8226 leukemia
SF-539 CNS = tested on: SF-539 CNS
RXF 393 renal = tested on: RXF 393 renal
UO-31 renal = tested on: UO-31 renal
HCT-15 colon = tested on: HCT-15 colon
KM12 colon = tested on: KM12 colon
SK-OV-3 ovarian = tested on: SK-OV-3 ovarian
MDA-MB-231 breast = tested on: MDA-MB-231 breast
SF-295 CNS = tested on: SF-295 CNS
786-0 renal = tested on: 786-0 renal

Measured: TGI

COC(=O)c1ccc(/C=C2\Oc3cc(O)ccc3C2=O)cc1
77.3 µM: RXF 393 renal
> 100 µM: all other assays above

Source: PubChem BioAssay (NCI)
